What was measured:
Conditions in all cases: incubation time: 72 h
[1] = test system: Hs578T; test: normalised viability (% of control), CellTiter-Blue; higher = more viable cells (100 = DMSO, 0 = benzethonium chloride kill control)
Protocol: (§1)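 DSRT, CellTiter-Blue viability, 72 h incubation. Signal is normalised to DMSO and benzethonium chloride controls. Value is the normalised response at dose 1.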

[2] = test system: CAL-148; test: as above
Protocol: as §1

[3] = test system: BT-549; test: as above
Protocol: as §1

[4] = test system: CAL-85-1; test: as above
Protocol: as §1

[5] = test system: SK-BR-3; test: as above
Protocol: as §1

[6] = test system: DU-4475; test: as above
Protocol: as §1

[7] = test system: HCC1143; test: as above
Protocol: as §1

[8] = test system: MDA-MB-468; test: as above
Protocol: as §1

[9] = test system: CAL-120; test: as above
Protocol: as §1

[10] = test system: MFM-223; test: as above
Protocol: as §1

[11] = test system: MDA-MB-453; test: as above
Protocol: as §1

[12] = test system: MDA-MB-231; test: as above
Protocol: as §1

[13] = test system: HCC1937; test: as above
Protocol: as §1

[14] = test system: MDA-MB-436; test: as above
Protocol: as §1

[15] = test system: HCC1599; test: as above
Protocol: as §1

[16] = test system: HDQ-P1; test: as above
Protocol: as §1

[17] = test system: Hs578T; test: drug sensitivity score (DSS), CellTiter-Glo (DSS (AUC-based score)); higher = stronger drug effect (viability inhibition or cytotoxicity); extreme values may be limits of the assay
In short: (§2)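 Plates with 384 wells held compound at 5 concentrations in 10-fold steps over a 10,000-fold range specific to each compound. Breast cancer cell lines were added in 20 µl suspension and incubated 72 h, then read for CellTox Green and CellTiter-Glo signals, with each plate normalised to 0.1 % DMSO and a positive kill control. The drug sensitivity score is based on the area under the fitted dose-response curve.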

[18] = test system: CAL-148; test: as above
In short: as §2

[19] = test system: BT-549; test: as above
In short: as §2

[20] = test system: CAL-85-1; test: as above
In short: as §2

[21] = test system: SK-BR-3; test: as above
In short: as §2

[22] = test system: BT-474; test: as above
In short: as §2

[23] = test system: CAL-51; test: as above
In short: as §2

[24] = test system: MDA-MB-468; test: as above
In short: as §2

[25] = test system: CAL-120; test: as above
In short: as §2

[26] = test system: MDA-MB-231; test: as above
In short: as §2

[27] = test system: HCC1937; test: as above
In short: as §2

Row | Compound | normalised viability ([1]; 1 nM) | normalised viability ([2]; 1 nM) | normalised viability ([3]; 1 nM) | normalised viability ([4]; 1 nM) | normalised viability ([5]; 1 nM) | normalised viability ([6]; 1 nM) | normalised viability ([7]; 1 nM) | normalised viability ([8]; 1 nM) | normalised viability ([9]; 1 nM) | drug sensitivity score [17] | drug sensitivity score [18] | drug sensitivity score [19] | drug sensitivity score [20] | drug sensitivity score [21] | drug sensitivity score [22] | drug sensitivity score [23] | drug sensitivity score [24] | drug sensitivity score [25] | drug sensitivity score [26] | drug sensitivity score [27] | also measured
1 | Oc1ncc(N(CCCl)CCCl)c(O)n1 [Uracil mustard] | 109% | 103% | 101% | 88.9% | 97.3% | 88.3% | 95.7% | 104% | 82.3% | 0 | 0 | 0 | 0 | 0 | 0 | 0 | 0 | 0 | 0 | 0 | normalised viability ([10]; 1 nM): 97.4%; normalised viability ([11]; 1 nM): 99.1%; normalised viability ([12]; 1 nM): 99.4%; normalised viability ([13]; 1 nM): 101%; normalised viability ([14]; 1 nM): 96.3%; normalised viability ([15]; 1 nM): 94.5%; normalised viability ([16]; 1 nM): 110%
2 | COc1cc2c(Oc3ccc4[nH]c(C)cc4c3F)ncnc2cc1OCCCN1CCCC1 [Cediranib] | – | – | – | – | – | – | – | – | – | 0 | 0 | 0 | 0 | 0 | 0 | 0 | 0 | 0 | 0 | 0 | normalised viability ([1]; 0.1 nM): 92%; normalised viability ([2]; 0.1 nM): 109%; normalised viability ([3]; 0.1 nM): 90.5%; normalised viability ([4]; 0.1 nM): 107%; normalised viability ([5]; 0.1 nM): 92.3%; normalised viability ([6]; 0.1 nM): 91.1%; normalised viability ([7]; 0.1 nM): 110%; normalised viability ([8]; 0.1 nM): 95.8%; normalised viability ([9]; 0.1 nM): 112%; normalised viability ([10]; 0.1 nM): 101%; normalised viability ([11]; 0.1 nM): 82.5%; normalised viability ([12]; 0.1 nM): 94.4%; normalised viability ([13]; 0.1 nM): 113%; normalised viability ([14]; 0.1 nM): 94.8%; normalised viability ([15]; 0.1 nM): 82.5%; normalised viability ([16]; 0.1 nM): 81.1%
3 | N#Cc1ccc(C(c2ccc(C#N)cc2)n2cncn2)cc1 [Letrozole] | 94.5% | 107% | 105% | 83.2% | 86.8% | 96.3% | 73.7% | 90.6% | 74.3% | 0 | 0 | 0 | 0 | 0 | 0 | 0 | 0 | 0 | 0 | 0 | normalised viability ([10]; 1 nM): 49.6%; normalised viability ([11]; 1 nM): 96.4%; normalised viability ([12]; 1 nM): 78.8%; normalised viability ([13]; 1 nM): 97.8%; normalised viability ([14]; 1 nM): 114%; normalised viability ([15]; 1 nM): 103%; normalised viability ([16]; 1 nM): 90.9%
4 | Nc1nc2[nH]cc(CCc3ccc(C(=O)N[C@@H](CCC(=O)O)C(=O)O)cc3)c2c(=O)[nH]1 [Pemetrexed] | 114% | 113% | 101% | 89.2% | 98.9% | 99.3% | 92.5% | 96.9% | 87% | 23.6 | 0 | 0 | 13.4 | 11 | 9.78 | 13.7 | 1.37 | 1.52 | 6.23 | 8.27 | normalised viability ([10]; 1 nM): 93.1%; normalised viability ([11]; 1 nM): 101%; normalised viability ([12]; 1 nM): 100%; normalised viability ([13]; 1 nM): 84.5%; normalised viability ([14]; 1 nM): 104%; normalised viability ([15]; 1 nM): 92.6%; normalised viability ([16]; 1 nM): 107%
5 | Nc1ccccc1NC(=O)c1ccc(CNC(=O)OCc2cccnc2)cc1 [Entinostat] | 118% | 95.8% | 107% | 97% | 102% | 119% | 95.7% | 110% | 83.6% | 4.83 | 4.83 | 8.43 | 1.24 | 6.67 | 2.59 | 12.8 | 4.34 | 0 | 2.59 | 0 | normalised viability ([10]; 1 nM): 98.7%; normalised viability ([11]; 1 nM): 113%; normalised viability ([12]; 1 nM): 102%; normalised viability ([13]; 1 nM): 80.4%; normalised viability ([14]; 1 nM): 124%; normalised viability ([15]; 1 nM): 102%; normalised viability ([16]; 1 nM): 113%
6 | CC1=C(/C=C/C(C)=C/C=C/C(C)=C/C(=O)O)C(C)(C)CCC1 [Tretinoin] | 116% | 103% | 98.4% | 87.1% | 97.7% | 91.8% | 94.9% | 109% | 86.9% | 1.26 | 2.48 | 0 | 0 | 7.99 | 0 | 0 | 2.13 | 0 | 1.34 | 0 | normalised viability ([10]; 1 nM): 98%; normalised viability ([11]; 1 nM): 100%; normalised viability ([12]; 1 nM): 97.2%; normalised viability ([13]; 1 nM): 117%; normalised viability ([14]; 1 nM): 90.4%; normalised viability ([15]; 1 nM): 99.3%; normalised viability ([16]; 1 nM): 114%
